We go through one compound from patent US11548855B2, “Pyrazole amide compound and application thereof, and fungicide” (Shandong United Pesticide Industry Co. Ltd., priority 2017, dated 2023).

Assay [1] relates to cucumber powdery mildew. The assay is described as follows: Field trial, cucumber powdery mildew. The class given is in vivo. To be noted: sprayed twice. The procedure: I. Cucumber Powdery Mildew Test Method:
Spray method: Stein and leaf spray (Applicator: Xinkangda lithium battery electric sprayer).
Test crop: cucumber (cultivars: Tianjiao7)
(§1) The test was carried out in Shenyang, the test field was loam with rich organic matters and normal management of fertilizer and water, and no other pesticide was applied during the test.
The arrangement of the test plot was random block permutation; the area of the test plot: 15 m^2; repeat times: 3 times; spray time and frequency: period between Sep. 28, 2018 and Oct. 11, 2018, twice. Spray dosage: each treatment was repeated 3 times, the total water consumption was 8 L. No other pesticide was applied during the test. […] 15-20 days after the second treatment, the incidence of disease spots in each plot was investigated.
The incidence of disease spots in each plot was investigated by randomly selecting 4 samples/plot and 2 plants/samples, all leaves/plant, the incidence of the whole plant was recorded by counting the number of disease leaves and determining the incidence grade.
Grading standard (in units of leaves):
(§2) Grade 0: no leaf-spot area;
(§3) Grade 1: the ratio of leaf-spot area to leaf area is less than 5%;
Grade 3: the ratio of leaf-spot area to leaf area is between 6-10%;
Grade 5: the ratio of leaf-spot area to leaf area is between 11-20%;
Grade 7: the ratio of leaf-spot area to leaf area is between 21-40%;
Grade 9: the ratio of leaf-spot area to leaf area is more than 40%;
(§4) According to the relevant content of the “Guidelines for the field efficacy trials of pesticides of the People's Republic of China (PRC)”, the disease index was calculated according to the grading standard, and the control effect in a unit of % was calculated based on the disease index, and the test data of significance analysis was performed by using DPS evaluation system (DMRT).

In assay [2] the test system is corn rust (Puccinia sorghi). The assay is described as follows: Greenhouse pot test, corn rust. It is filed as in vivo. To be noted: Puccinia sorghi, 168 h, read-out: Control effect (%) Corn rust. As to the method:
Test method: each of the test compounds in Table 1 was dispensed to 5 wt % emulsifiable concentrate (hereinafter referred to as 5% EC). The greenhouse pot test was used in each experiment, and the effective concentrations of each compound were illustrated in Table 1.
Corn rust: two-three leaf stage potted corn seedling with uniform growth was selected and made foliar spray treatment with 5% EC, the blank control sprayed with clean water was additionally arranged, three replicates were carried out. After 24 h, the leaves of the host plants were inoculated with sporangial suspensions of the fungi corn rust (Puccinia sorghi), the plants were stored in humidity chamber (temperature: lighting 25° C., dark 20° C., relative humidity 95-100%) and then transferred to greenhouse (25±1° C.) 24 h after infection. After 7 days, the screening results were investigated according to the disease incidence condition of blank control.
The investigation method: “Guidelines for the field efficacy trials of pesticides” was adopted as the grading standard, and the control effect in a unit of % was calculated based on the disease index. Disease index=Σ(number of diseased leaves at each grade×relative grade value)×100/(total number of leaves×9); Control effect (%)=(disease index of control−disease index of treated)×100/disease index of control;
The compounds provided by the present disclosure and some control compounds were tested by the same methods in the Test example 1, except that the effective concentrations of the compounds in this Test example are shown in Table 2.

In assay [3] the test system is wheat powdery mildew. The assay is described as follows: Field trial, wheat powdery mildew. The class given is in vivo, Erysiphe graminis. To be noted: sprayed once. As to the method:
II. The Wheat Powdery Mildew Test Method:
Spray method: Stein and leaf spraying (Applicator: Xinkangda lithium battery electric sprayer).
Test crops: wheat (cultivars: Liaochun 10)
as §1
The arrangement of the test plot was random block permutation; the area of the test plot: 15 m^2; repeat times: 3 times; spray time and frequency: Sep. 17, 2018, once. Spray dosage: each treatment was repeated 3 times, the total water consumption was 8 L. No other pesticide was applied during the test.
The incidence of disease spots in each plot was investigated by diagonal selecting 4 samples/plot and 20 plants/samples, and the first leaf below the flag leaf of each plant was investigated.
The grading standard of crop disease was as follows:
as §2, §3
Grade 3: the ratio of leaf-spot area to leaf area is between 6-25%;
Grade 5: the ratio of leaf-spot area to leaf area is between 26-50%;
Grade 7: the ratio of leaf-spot area to leaf area is between 51-75%;
Grade 9: the ratio of leaf-spot area to leaf area is between 76-100%;
as §4

For the compound `Cn1cc(C(=O)Nc2ccccc2Oc2ccc(C(F)(F)F)cc2C(F)(F)F)c(C(F)F)n1` [Compound 1], the “Control effect (%) Cucumber powdery mildew” value in assay [1] (100 mg/L) came out at 90.0%; in assay [1] (200 mg/L), 96.5%. For the same compound, in assay [2] (1.5625 mg/L), the pest or weed control at 1.5625 µg/mL came to 100%. Also, the pest or weed control at 2.5 µg/mL in assay [2] (2.5 mg/L) was 100%. In addition, the pest or weed control at 3.125 µg/mL in assay [2] (3.1250 mg/L) came to 100%. Also, the pest or weed control at 6.25 µg/mL in assay [2] (6.25 mg/L) came out at 100%. Moreover, in assay [2] (10 mg/L), the pest or weed control at 10 µg/mL is 100%. In assay [2] (25 mg/L), the pest or weed control at 25 µg/mL was determined as 100%. Besides, the pest or weed control at 100 µg/mL in assay [2] (100 mg/L) was 100%. Further, the results for the “Control effect (%) Wheat powdery mildew” value in assay [3] (100 mg/L) and in assay [3] (200 mg/L) were 98% and 100%, respectively.
